Data from patent publication US5563155A, “Individual stereosiomers of 7-[3-(aminoalkyl)-1-pyrrolidinyl]-quinolones and naphthyridones as antibacterial agents” (Warner-Lambert Company, priority 1995, dated 1996).
≈ marks a conversion by molar mass, not a printed value. Read-outs that look alike come from different tables or passages of the source.

Assays:
[1] = test system: Pseud. aeruginosa UI-18; assay: median protective dose in mice given lethal systemic infections, Pseud. aeruginosa UI-18; type: in vivo; conditions: Pseudomonas aeruginosa, single dose at time of challenge, read-out: median protective dose (PD50)
Procedure: (§1) The in vivo activity is obtained when the compounds are tested according to the procedure of Miller, et al (Proc. Soc. Exp. Biol. Med. 57, 261, 1944). The median protective dose (PD50) was determined in mice given lethal systemic infections. Single doses of compound were given at time of challenge.
(§2) By use of the above methods, the following minimum inhibiting concentration values (MICs in μg/mL), PD50 's in mg/kg, no effect phototoxicity dose in mg/kg and the cytotoxicity IC50 in μg/mL were obtained for representative enantiomers of the invention and compounds of the prior art as shown in the table.
(§3) The in vivo data as PD50 s are reported below the line of MICs for the same compound.

[2] = test system: Strep. pyogenes C-203; assay: in vitro antibacterial activity, microtitration dilution (MIC), Strep. pyogenes C-203; type: cell-based; conditions: Streptococcus pyogenes, C203, read-out: minimum inhibiting concentration (MIC)
Procedure, shortened: (§4)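 Microtitration dilution method used to obtain minimum inhibitory concentrations, expressed as μg/mL.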

[3] = test system: Strep. pheumoniae SV-1; assay: median protective dose in mice given lethal systemic infections, Strep. pneumoniae SV-1; type: in vivo; conditions: Streptococcus pneumoniae, single dose at time of challenge, read-out: median protective dose (PD50)
Procedure: as §1, §2, §3

[4] = test system: Strep. pheumoniae SV-1; assay: in vitro antibacterial activity, microtitration dilution (MIC), Strep. pneumoniae SV-1; type: cell-based; conditions: Streptococcus pneumoniae, SV1, read-out: minimum inhibiting concentration (MIC)
Procedure, shortened: as §4

[5] = test system: Ent. cloacae MA2646; assay: in vitro antibacterial activity, microtitration dilution (MIC), Ent. cloacae MA2646; type: cell-based; conditions: Enterobacter cloacae, read-out: minimum inhibiting concentration (MIC)
Procedure, shortened: as §4

[6] = test system: Staph. aureus UC-76; assay: in vitro antibacterial activity, microtitration dilution (MIC), Staph. aureus UC-76; type: cell-based; conditions: Staphylococcus aureus, UC76, read-out: minimum inhibiting concentration (MIC)
Procedure, shortened: as §4

[7] = test system: Esch. coli Vogel; assay: in vitro antibacterial activity, microtitration dilution (MIC), Esch. coli Vogel; type: cell-based; conditions: Escherichia coli, read-out: minimum inhibiting concentration (MIC)
Procedure, shortened: as §4

[8] = test system: Staph. aureus H 228; assay: in vitro antibacterial activity, microtitration dilution (MIC), Staph. aureus H 228; type: cell-based; conditions: Staphylococcus aureus, H228, read-out: minimum inhibiting concentration (MIC)
Procedure, shortened: as §4

[9] = test system: Klebs. pneumoniae MGH-2; assay: in vitro antibacterial activity, microtitration dilution (MIC), Klebs. pneumoniae MGH-2; type: cell-based; conditions: Klebsiella pneumoniae, MGH2, read-out: minimum inhibiting concentration (MIC)
Procedure, shortened: as §4

[10] = in vivo; parameters: species or system mice; conditions: mouse, po
Procedure: The phototoxicity data is obtained using depilated mice. The compound was administered orally each day for four successive days, followed each day by 3 hours of UVA radiation. The mice were examined for any positive signs (redness, erythema) relative to control animals. The no effect dose and the 50% effect dose were determined. By use of the above methods, the following minimum inhibiting concentration values (MICs in μg/mL), PD50 's in mg/kg, no effect phototoxicity dose in mg/kg and the cytotoxicity IC50 in μg/mL were obtained for representative enantiomers of the invention and compounds of the prior art as shown in the table.

[11] = test system: Esch. coli Vogel; assay: median protective dose in mice given lethal systemic infections, Esch. coli Vogel; type: in vivo; conditions: Escherichia coli, single dose at time of challenge, read-out: median protective dose (PD50)
Procedure: as §1, §2, §3

[12] = cytotoxicity, hamster V-79 cells, colony reduction; type: cell-based; conditions: 3 hours treatment, colonies counted after 5 days, read-out: Cytotox (cytotoxicity IC50)
Procedure: The cytotoxicity data is obtained using hamster V-79 cells. The cells were suspended in tissue culture medium and grown overnight. Cells were treated with drug for 3 hours, washed free of drug and then replated, and the colonies counted after 5 days. The concentration of drug that reduced colones by 50% relative to control was recorded.
as §2

[13] = test system: Pseud. aeruginosa UI-18; assay: in vitro antibacterial activity, microtitration dilution (MIC), Pseud. aeruginosa UI-18; type: cell-based; conditions: Pseudomonas aeruginosa, UI18, read-out: minimum inhibiting concentration (MIC)
Procedure, shortened: as §4

[14] = test system: Strep. pyogenes C-203; assay: median protective dose in mice given lethal systemic infections, Strep. pyogenes C-203; type: in vivo; conditions: Streptococcus pyogenes, single dose at time of challenge, read-out: median protective dose (PD50)
Procedure: as §1, §2, §3

[15] = test system: Prot. rettgeri M 1771; assay: in vitro antibacterial activity, microtitration dilution (MIC), Prot. rettgeri M 1771; type: cell-based; conditions: Providencia rettgeri, M1771, read-out: minimum inhibiting concentration (MIC)
Procedure, shortened: as §4

[16] = test system: Strep. faecalis MGH-2; assay: in vitro antibacterial activity, microtitration dilution (MIC), Strep. faecalis MGH-2; type: cell-based; conditions: Enterococcus faecalis, MGH2, read-out: minimum inhibiting concentration (MIC)
Procedure, shortened: as §4

| SMILES | ED50 ([1]; UI18, PO) [mg/kg] | ED50 ([1]; UI18, SC) [mg/kg] | MIC [2] [µg/mL] | ED50 ([3]; SV1, PO) [mg/kg] | ED50 ([3]; SV1, SC) [mg/kg] | MIC [4] [µg/mL] | MIC [5] [µg/mL] | MIC [6] [µg/mL] | MIC [7] [µg/mL] | MIC [8] [µg/mL] | MIC [9] [µg/mL] | NOAEL at 96 h [10] [mg/kg] | ED50 ([11]; PO) [mg/kg] | ED50 ([11]; SC) [mg/kg] | CC50 at 3 h [12] [µg/mL] | MIC [13] [µg/mL] | ED50 ([14]; C203, PO) [mg/kg] | ED50 ([14]; C203, SC) [mg/kg] | MIC [15] [µg/mL] | MIC [16] [µg/mL] |
| --- | --- | --- | --- | --- | --- | --- | --- | --- | --- | --- | --- | --- | --- | --- | --- | --- | --- | --- | --- | --- |
| C[C@H]([C@@H]1CCN(c2nc3c(cc2F)c(=O)c(C(=O)O)cn3C2CC2)C1)N(C)C [Example 72, 3R,1R-1-cyclopropyl-7-[3-[1-(dimethylamino)ethyl]-1-pyrrolidinyl]-6-fluoro-1,4,-dihydro-4-oxo-1,8-naphthyridine-3-carboxylic acid] | 17 | 11 | 0.05 (≈ 0.129 µM) | 2 | 2 | 0.025 (≈ 0.0644 µM) | 0.2 (≈ 0.515 µM) | 0.025 (≈ 0.0644 µM) | 0.1 (≈ 0.257 µM) | 0.025 (≈ 0.0644 µM) | 0.2 (≈ 0.515 µM) | < 30 | 1 | 1 | 120 (≈ 309 µM) | 1.6 (≈ 4.12 µM) | 2 | 2 | 0.8 (≈ 2.06 µM) | 0.1 (≈ 0.257 µM) |
| C[C@@H](N)[C@H]1CCN(c2nc3c(cc2F)c(=O)c(C(=O)O)cn3C2CC2)C1 [Example 5, 3S,1R-1-cyclopropyl-6-fluoro-7-[3-(1-aminoethyl)-1-pyrrolidinyl]-1,4-dihydro-4-oxo-1,8-naphthyridine-3-carboxylic acid] | 23 | 16 | 0.05 (≈ 0.139 µM) | 15 | 7 | 0.05 (≈ 0.139 µM) | 0.05 (≈ 0.139 µM) | 0.025 (≈ 0.0694 µM) | 0.05 (≈ 0.139 µM) | 0.2 (≈ 0.555 µM) | 0.1 (≈ 0.277 µM) | > 100 | 4 | 1 | 84 (≈ 233 µM) | 0.8 (≈ 2.22 µM) | – | – | 0.2 (≈ 0.555 µM) | 0.1 (≈ 0.277 µM) |
| C[C@H](N)[C@H]1CCN(c2nc3c(cc2F)c(=O)c(C(=O)O)cn3C2CC2)C1 [Example 6, 3S,1S-1-cyclopropyl-6-fluoro-7-[3-(1-aminoethyl)-1-pyrrolidinyl]-1,4-dihydro-4-oxo-1,8-naphthyridine-3-carboxylic acid] | 96 | 25 | 0.05 (≈ 0.139 µM) | 28 | 10 | 0.05 (≈ 0.139 µM) | 0.05 (≈ 0.139 µM) | 0.025 (≈ 0.0694 µM) | 0.05 (≈ 0.139 µM) | 0.2 (≈ 0.555 µM) | 0.2 (≈ 0.555 µM) | > 100 | 8 | 1 | 77 (≈ 214 µM) | 1.6 (≈ 4.44 µM) | – | – | 0.4 (≈ 1.11 µM) | 0.1 (≈ 0.277 µM) |
| C[C@H](N)[C@@H]1CCN(c2nc3c(cc2F)c(=O)c(C(=O)O)cn3C2CC2)C1 [Example 7, 3R,1S-1-cyclopropyl-6-fluoro-7-[3-(1-aminoethyl)-1-pyrrolidinyl]-1,4-dihydro-4-oxo-1,8-naphthyridine-3-carboxylic acid] | 15 | 4 | 0.013 (≈ 0.0361 µM) | 3 | 1 | 0.006 (≈ 0.0166 µM) | 0.025 (≈ 0.0694 µM) | – | 0.025 (≈ 0.0694 µM) | 0.025 (≈ 0.0694 µM) | 0.05 (≈ 0.139 µM) | 30 | 2 | 0.4 | 33 (≈ 91.6 µM) | 0.4 (≈ 1.11 µM) | 3 | 1 | 0.1 (≈ 0.277 µM) | 0.025 (≈ 0.0694 µM) |
| C[C@@H](N)[C@@H]1CCN(c2nc3c(cc2F)c(=O)c(C(=O)O)cn3C2CC2)C1 [Example 8] | 35 | 12 | 0.013 (≈ 0.0361 µM) | 14 | 2 | 0.006 (≈ 0.0166 µM) | 0.05 (≈ 0.139 µM) | 0.06 (≈ 0.166 µM) | 0.05 (≈ 0.139 µM) | 0.05 (≈ 0.139 µM) | 0.1 (≈ 0.277 µM) | 55 | 6 | 1 | 100 (≈ 277 µM) | 0.8 (≈ 2.22 µM) | – | – | 0.4 (≈ 1.11 µM) | 0.05 (≈ 0.139 µM) |
| C[C@H](N)[C@@H]1CCN(c2nc3c(cc2F)c(=O)c(C(=O)O)cn3-c2ccc(F)cc2F)C1 [Example 43, 3R,1S-7-[3(1-aminoethyl)-1-pyrrolidinyl]-1-(2,4-difluorophenyl)-6-fluoro-1,4-dihydro-4-oxo-1,8-naphthyridine-3-carboxylic acid] | – | – | 0.006 (≈ 0.0139 µM) | 3 | 3 | 0.006 (≈ 0.0139 µM) | 0.2 (≈ 0.463 µM) | 0.006 (≈ 0.0139 µM) | 0.1 (≈ 0.231 µM) | 0.05 (≈ 0.116 µM) | 0.2 (≈ 0.463 µM) | > 100 | 3.5 | 1 | 280 (≈ 648 µM) | 0.8 (≈ 1.85 µM) | 1 | 1 | 0.4 (≈ 0.925 µM) | 0.025 (≈ 0.0578 µM) |
